The record followed here is patent publication US20150038527A1, “FUROPYRIDINE DERIVATIVES” (Merck Patent GmbH, priority 2012, published 2015).

This test deals with T1, SYK (Homo sapiens, UniProt P43405).
T1 construct: 2.5 nM SYK, 400 nM Biotin-Aha-Aha-KEDPDYEWPSAKK and 10 μM ATP
The test is described as follows: SYK Flash Plate Assay (enzyme assay). Format: biochemical. The method, then: The kinase assay is performed either as 384-well Flashplate assay (for e.g. Topcount measurement) or as 384-well Image-Flashplate assay (for LEADseeker measurement).
2.5 nM SYK, 400 nM Biotin-Aha-Aha-KEDPDYEWPSAKK and 10 μM ATP (spiked with 0.3 μCi 33P-ATP/well) are incubated in a total volume of 50 μl (60 mM Hepes, 10 mM MgCl2, 1.2 mM Dithiothreitol, 0.02% Brij35, 0.1% BSA, pH 7.5) with or without test compound for 1 hours at 30° C. The reaction is stopped with 25 μl 200 mM EDTA. After 30 Min at 30° C. the liquid is removed and each well washed thrice with 100 μl 0.9% sodium chloride solution. Non-specific reaction is determined in presence of 0.1 μM Staurosporine. Radioactivity is measured with Topcount (when using Flashplates) or with LEADseeker (when using Image-Flashplates) respectively. Results (e.g. IC50-values) are calculated with program tools provided by the IT-department (e.g. Symyx Assay Explorer, Genedata Screener).

For the compound `COc1cc(-c2cc3nccc(-c4cccc(C(=O)N[C@@H]5CCC[C@H]5O)c4)c3o2)cc(OC)c1OC` [Compound A12, N-((1R,2R)-2-hydroxy-cyclopentyl)-3-[2-(3,4,5-trimethoxy-phenyl)-furo[3,2-b]pyridin-7-yl]-benzamide], the IC50 – broadly, the concentration at which inhibition is half-maximal – fell in the range of 0.3 to 3 µM.
The compound `COc1ccc(C(N)=O)cc1-c1cc2nccc(-c3c(OC)cc(C(=O)NCCN)cc3OC)c2o1` [Compound A76, N-(2-amino-ethyl)-4-[2-(5-carbamoyl-2-methoxy-phenyl)-furo[3,2-b]pyridin-7-yl]-3,5-dimethoxy-benzamide] yielded an IC50 below 0.1 µM.
`COc1ccc(C(N)=O)cc1-c1cc2nccc(-c3c(OC)cccc3OC)c2o1` [Compound A62, 3-[7-(2,6-dimethoxy-phenyl)-furo[3,2-b]pyridin-2-yl]-4-methoxy-benzamide]: the IC50 lay within 0.3 to 3 µM.
The same measure for `COc1cc(-c2cc3nccc(-c4cc(F)cc(C(=O)NCCN)c4)c3o2)cc(OC)c1OC` [Compound A55, N-(2-amino-ethyl)-3-fluoro-5-[2-(3,4,5-trimethoxy-phenyl)-furo[3,2-b]pyridin-7-yl]-benzamide]: 0.1 to 0.3 µM.
The same measure for `COc1cc(-c2cc3nccc(N4CCNCC4)c3o2)cc(OC)c1OC` [Compound A53, 7-piperazin-1-yl-2-(3,4,5-trimethoxy-phenyl)-furo[3,2-b]pyridine]: 3 to 50 µM; for `COc1cc(-c2cc3nccc(-c4nnc(CCCN)[nH]4)c3o2)cc(OC)c1OC` [Compound A108, 3-{5-[2-(3,4,5-trimethoxy-phenyl)-furo[3,2-b]pyridin-7-yl]-4H-[1,2,4]triazol-3-yl}-propylamine]: 0.1 to 0.3 µM; for `COc1cc(-c2cc3nccc(-c4cc5cn[nH]c5cc4C)c3o2)cc(OC)c1OC` [Compound A13, 7-(6-methyl-1H-indazol-5-yl)-2-(3,4,5-trimethoxy-phenyl)-furo[3,2-b]pyridine]: 0.3 to 3 µM.
As to `COc1cc(-c2cc3nccc(N=[N+]=[N-])c3o2)cc(OC)c1OC` [Compound A86, 7-azido-2-(3,4,5-trimethoxy-phenyl)-furo[3,2-b]pyridine], the IC50 was 3 to 50 µM.
Compound `COc1ccc(-c2noc(CN)n2)cc1-c1cc2nccc(-c3c(OC)cccc3OC)c2o1` [Compound A106, C-(3-{3-[7-(2,6-dimethoxy-phenyl)-furo[3,2-b]pyridin-2-yl]-4-methoxy-phenyl}-[1,2,4]oxadiazol-5-yl)-methylamine] displayed an IC50 below 0.1 µM.
The compound `COc1cc(-c2cc3nccc(-c4cccc(C(=O)NCC(O)CO)c4)c3o2)cc(OC)c1OC` (stereo not drawn) [Compound A20, N-(2,3-dihydroxy-propyl)-3-[2-(3,4,5-trimethoxy-phenyl)-furo[3,2-b]pyridin-7-yl]-benzamide] had an IC50 of 3 to 50 µM.
The same measure for `COc1cc(-c2cc3nccc(-c4cccc(C(=O)N[C@@H]5CCCC[C@@H]5NC(C)=O)c4)c3o2)cc(OC)c1OC` [Compound A34, N-((1R,2S)-2-acetylamino-cyclohexyl)-3-[2-(3,4,5-trimethoxy-phenyl)furo[3,2-b]pyridin-7-yl]-benzamide]: 3 to 50 µM.
As for `COc1cc(-c2cc3nccc(-c4cc(F)cc(C(=O)N[C@@H]5CCCC[C@@H]5N)c4)c3o2)cc(OC)c1OC` [Compound A35, N-((1R,2S)-2-amino-cyclohexyl)-3-fluoro-5-[2-(3,4,5-trimethoxy-phenyl)furo[3,2-b]pyridin-7-yl]-benzamide], the IC50 was 0.3 to 3 µM.
The compound `COc1cc(-c2cc3nccc(-c4ccc(N(C)C)cc4)c3o2)cc(OC)c1OC` [Compound A65, dimethyl-{4-[2-(3,4,5-trimethoxy-phenyl)-furo[3,2-b]pyridin-7-yl]-phenyl}-amine] gave an IC50 of 3 to 50 µM.
The same measure for `COc1cc(-c2cc3nccc(-c4cccc(C(=O)N[C@@H]5C[C@@H]5N)c4)c3o2)cc(OC)c1OC` [Compound A64, N-((1R,2S)-2-amino-cyclopropyl)-3-[2-(3,4,5-trimethoxy-phenyl)-furo[3,2-b]pyridin-7-yl]-benzamide]: 0.3 to 3 µM; for `COc1ccc(C(N)=O)cc1-c1cc2nccc(-c3cnc(F)cc3C)c2o1` [Compound A54, 3-[7-(6-fluoro-4-methyl-pyridin-3-yl)-furo[3,2-b]pyridin-2-yl]-4-methoxybenzamide]: 3 to 50 µM.
Under `COc1cc(-c2cc3ncc(F)c(-c4cccc(C(=O)N[C@@H]5CCCC[C@@H]5N)c4)c3o2)cc(OC)c1OC` [Compound A47, N-((1R,2S)-2-amino-cyclohexyl)-3-[6-fluoro-2-(3,4,5-trimethoxy-phenyl)furo[3,2-b]pyridin-7-yl]-benzamide] stands 0.3 to 3 µM; under `COC[C@H](N)CNC(=O)c1cccc(-c2ccnc3cc(-c4cc(OC)c(OC)c(OC)c4)oc23)c1` [Compound A5, N—((R)-2-amino-3-methoxy-propyl)-3-[2-(3,4,5-trimethoxy-phenyl)-furo[3,2-b]pyridin-7-yl]-benzamide], 0.3 to 3 µM; under `COCC(O)CNC(=O)c1cccc(-c2ccnc3cc(-c4cc(OC)c(OC)c(OC)c4)oc23)c1` (stereo not drawn) [Compound A16, N-(2-hydroxy-3-methoxy-propyl)-3-[2-(3,4,5-trimethoxy-phenyl)-furo[3,2-b]pyridin-7-yl]-benzamide], 3 to 50 µM.
Take `COc1cc(O)ccc1-c1cc2nccc(-c3cccc(C(=O)N[C@@H]4CCCC[C@@H]4N)c3)c2o1` [Compound A15, N-((1R,2S)-2-amino-cyclohexyl)-3-[2-(4-hydroxy-2-methoxy-phenyl)furo[3,2-b]pyridin-7-yl]-benzamide]: the IC50 was 0.3 to 3 µM.
Under `COc1cc(-c2cc3nccc(-c4cccc(C(=O)N[C@H]5C[C@@H](N)C5)c4)c3o2)cc(OC)c1OC` [Compound A27, N-(3-amino-cyclobutyl)-3-[2-(3,4,5-trimethoxy-phenyl)-furo[3,2-b]pyridin-7-yl]-benzamide] stands 0.3 to 3 µM; under `COc1cc(-c2cc3nccc(-c4ccc(O)nc4)c3o2)cc(OC)c1OC` [Compound A38, 5-[2-(3,4,5-trimethoxy-phenyl)-furo[3,2-b]pyridin-7-yl]-pyridin-2-ol], 0.3 to 3 µM; under `COc1cc(-c2cc3nccc(NCC4CCCNC4)c3o2)cc(OC)c1OC` (stereo not drawn) [Compound A2, Piperidin-3-ylmethyl-[2-(3,4,5-trimethoxy-phenyl)-furo[3,2-b]pyridin-7-yl]-amine], 3 to 50 µM.
Under `COC[C@@H](CNC(=O)c1cccc(-c2ccnc3cc(-c4cc(OC)c(OC)c(OC)c4)oc23)c1)NS(C)(=O)=O` [Compound A10, N—((R)-2-methanesulfonylamino-3-methoxy-propyl)-3-[2-(3,4,5-trimethoxyphenyl)-furo[3,2-b]pyridin-7-yl]-benzamide] stands 0.3 to 3 µM; under `COc1cc2[nH]cnc2cc1-c1ccnc2cc(-c3cc(OC)c(OC)c(OC)c3)oc12` [Compound A87, 7-(6-methoxy-1H-benzoimidazol-5-yl)-2-(3,4,5-trimethoxy-phenyl)-furo[3,2-b]pyridine], 0.3 to 3 µM.
The same measure for `COc1ccc(C(=O)NCCCN)cc1-c1ccnc2cc(-c3cc(OC)c(OC)c(OC)c3)oc12` [Compound A58, N-(3-amino-propyl)-4-methoxy-3-[2-(3,4,5-trimethoxy-phenyl)-furo[3,2-b]pyridin-7-yl]-benzamide]: 0.3 to 3 µM.
With `COc1cc(-c2cc3nccc(-c4cc(C)cc(C(=O)NCCCN)c4)c3o2)cc(OC)c1OC` [Compound A57, N-(3-amino-propyl)-3-methyl-5-[2-(3,4,5-trimethoxy-phenyl)-furo[3,2-b]pyridin-7-yl]-benzamide], the IC50 is 0.3 to 3 µM.
The same measure for `COc1ccc([C@H](C)N)cc1-c1ccnc2cc(-c3cc(OC)c(OC)c(OC)c3)oc12` [Compound A101, (S)-1-{4-methoxy-3-[2-(3,4,5-trimethoxy-phenyl)-furo[3,2-b]pyridin-7-yl]-phenyl}-ethylamine]: 0.3 to 3 µM; for `COc1ccc(C(N)=O)cc1-c1cc2nccc(-c3ccc4[nH]cnc4c3)c2o1` [Compound A9, 3-[7-(1H-benzoimidazol-5-yl)-furo[3,2-b]pyridin-2-yl]-4-methoxy-benzamide]: below 0.1 µM; for `COc1ccc(C(=O)NCCN)cc1-c1cc2nccc(-c3c(OC)cccc3OC)c2o1` [Compound A71, N-(2-amino-ethyl)-3-[7-(2,6-dimethoxy-phenyl)-furo[3,2-b]pyridin-2-yl]-4-methoxy-benzamide]: 0.3 to 3 µM.
Under `COc1cc(-c2cc3nccc(-c4cc(F)cc(C(=O)NCCCN)c4)c3o2)cc(OC)c1OC` [Compound A61, N-(3-amino-propyl)-3-fluoro-5-[2-(3,4,5-trimethoxy-phenyl)-furo[3,2-b]pyridin-7-yl]-benzamide] stands 3 to 50 µM; under `COc1cc(-c2cc3nccc(-c4cccc(C(=O)N[C@H]5C[C@H](N)C5)c4)c3o2)cc(OC)c1OC` [Compound A24, N-(3-amino-cyclobutyl)-3-[2-(3,4,5-trimethoxy-phenyl)-furo[3,2-b]pyridin-7-yl]-benzamide], 0.3 to 3 µM.
Under `COCC(O)CNC(=O)c1ccc(OC)c(-c2cc3nccc(-c4c(OC)cccc4OC)c3o2)c1` (stereo not drawn) [Compound A69, 3-[7-(2,6-dimethoxy-phenyl)-furo[3,2-b]pyridin-2-yl]-N-(2-hydroxy-3-methoxypropyl)-4-methoxy-benzamide] stands 0.3 to 3 µM; under `COc1ccc(C(N)=O)cc1-c1cc2nccc(-c3cc4[nH]cnc4cc3OC)c2o1` [Compound A89, 4-Methoxy-3-[7-(6-methoxy-3H-benzoimidazol-5-yl)-furo[3,2-b]pyridin-2-yl]-benzamide], 0.3 to 3 µM.
